Toxic doses and inconclusive results are not listed. Rule for the calls: active = survival T/C of 150% or more; inactive = T/C below 125% in these data.
System: P388 leukemia ip, CD2F1 mice, survival T/C
Test: NCI In Vivo Anticancer Drug Screen. Data for tumor model P388 Leukemia (intraperitoneal) in CD2F1 (CDF1) mice
Conditions: endpoint: median survival time, higher = longer survival
Procedure, shortened: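 Mice carrying the transplanted tumor received test compound or vehicle. Survival was recorded in each group, and the value is the treated-group measurement divided by that of the vehicle-treated control group.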

[1] = dose: 50.0 mg/kg/injection, schedule: Q01DX005 (ip), vehicle: Klucel (hydroxypropylcellulose) (HPC)
[2] = dose: 100.0 mg/kg/injection, schedule: Q01DX005 (ip), vehicle: Klucel (hydroxypropylcellulose) (HPC)
[3] = dose: 200.0 mg/kg/injection, schedule: Q01DX005 (ip), vehicle: Klucel (hydroxypropylcellulose) (HPC)
[4] = dose: 50.0 mg/kg/injection, schedule: Q01DX005 (ip), vehicle: saline with Tween-80
[5] = dose: 100.0 mg/kg/injection, schedule: Q01DX005 (ip), vehicle: saline with Tween-80
[6] = dose: 200.0 mg/kg/injection, schedule: Q01DX005 (ip), vehicle: saline with Tween-80
[7] = dose: 12.5 mg/kg/injection, schedule: Q01DX009 (ip), vehicle: saline with Tween-80
[8] = dose: 25.0 mg/kg/injection, schedule: Q01DX009 (ip), vehicle: saline with Tween-80
[9] = dose: 50.0 mg/kg/injection, schedule: Q01DX009 (ip), vehicle: saline with Tween-80
[10] = dose: 100.0 mg/kg/injection, schedule: Q01DX009 (ip), vehicle: saline with Tween-80
[11] = dose: 100.0 mg/kg/injection, schedule: Q04DX002 (ip), vehicle: saline with Tween-80
[12] = dose: 200.0 mg/kg/injection, schedule: Q04DX002 (ip), vehicle: saline with Tween-80
[13] = dose: 400.0 mg/kg/injection, schedule: Q04DX002 (ip), vehicle: saline with Tween-80
[14] = dose: 100.0 mg/kg/injection, schedule: Q04DX003 (ip), vehicle: saline with Tween-80
[15] = dose: 200.0 mg/kg/injection, schedule: Q04DX003 (ip), vehicle: saline with Tween-80

Measured: T/C

[N-]=[N+]=C1N=Nc2ccccc21
inactive: dose: 0.78 mg/kg/injection, schedule: Q01DX005 (ip), vehicle: Klucel (hydroxypropylcellulose) (HPC) 99 % of control | dose: 1.56 mg/kg/injection, schedule: Q01DX005 (ip), vehicle: Klucel (hydroxypropylcellulose) (HPC) 107 % of control | dose: 3.12 mg/kg/injection, schedule: Q01DX005 (ip), vehicle: Klucel (hydroxypropylcellulose) (HPC) 107 % of control

Cc1cc(Cc2ccc3c(c2)OCO3)ccc1OCC(=O)O
inactive: [1] 98 % of control | [2] 105 % of control | [3] 104 % of control

Cc1ccc(-c2nc3n(c2/C=N/NS(=O)(=O)c2ccc(C)cc2)CCS3)cc1
inactive: dose: 100.0 mg/kg/injection, schedule: Q01DX001 (ip), vehicle: Klucel (hydroxypropylcellulose) (HPC) 100 % of control | dose: 200.0 mg/kg/injection, schedule: Q01DX001 (ip), vehicle: Klucel (hydroxypropylcellulose) (HPC) 93 % of control | dose: 400.0 mg/kg/injection, schedule: Q01DX001 (ip), vehicle: Klucel (hydroxypropylcellulose) (HPC) 91 % of control

N#CC1(C#N)C(c2ccccc2)C1(C#N)C#N
inactive: dose: 6.25 mg/kg/injection, schedule: Q04DX003 (ip), vehicle: saline sonified 115 % of control | dose: 12.5 mg/kg/injection, schedule: Q04DX003 (ip), vehicle: saline sonified 110 % of control | dose: 16.5 mg/kg/injection, schedule: Q04DX003 (ip), vehicle: saline with Tween-80 108 % of control | dose: 25.0 mg/kg/injection, schedule: Q04DX003 (ip), vehicle: saline with Tween-80 112 % of control

COc1ccc(C2(c3ccc(OC)cc3)c3ccccc3C(=O)c3ccc(OC)cc32)cc1
inactive: [4] 98 % of control | [5] 100 % of control | [6] 96 % of control

Cc1cn(O)cc(C)c1=N
inactive: [7] 100 % of control | [8] 100 % of control | [9] 108 % of control

O=C(O)c1c(CS(F)(F)(F)(F)F)cc(=O)oc1CS(F)(F)(F)(F)F
inactive: [4] 106 % of control | [5] 105 % of control

COc1ccc(CCNC(=O)Nc2ccc(C(C)(C)C)cc2)cc1OC
inactive: [4] 101 % of control | [5] 97 % of control | [6] 101 % of control

NC(=O)C1CCN(Cc2c[nH]c3ccccc23)CC1
inactive: [8] 104 % of control | [9] 100 % of control | [10] 104 % of control | dose: 200.0 mg/kg/injection, schedule: Q01DX009 (ip), vehicle: saline with Tween-80 102 % of control

CC(C)=CC[P+](CP(c1ccccc1)c1ccccc1)(c1ccccc1)c1ccccc1
inactive: dose: 3.12 mg/kg/injection, schedule: Q01DX005 (ip), vehicle: saline with Tween-80 107 % of control | dose: 6.25 mg/kg/injection, schedule: Q01DX005 (ip), vehicle: saline with Tween-80 105 % of control | dose: 12.5 mg/kg/injection, schedule: Q01DX005 (ip), vehicle: saline with Tween-80 89 % of control

CSCCCNCc1ccccc1
inactive: dose: 50.0 mg/kg/injection, schedule: Q01DX005 (ip), vehicle: saline 100 % of control | dose: 100.0 mg/kg/injection, schedule: Q01DX005 (ip), vehicle: saline 106 % of control

CC1=C(C(=O)Nc2ccccc2)C(c2ccc(Cl)cc2Cl)C(C(=O)Nc2ccccc2)=C(C)N1
inactive: [11] 99 % of control | [12] 101 % of control | [13] 92 % of control

CC(=O)c1ccc([N+](=O)[O-])cc1Cl
inactive: [11] 106 % of control | [12] 106 % of control | [13] 103 % of control

CCCCCCCN(CCCCCCC)CC(O)c1c(Br)c2ccccc2c2ccccc12 (stereo not given)
inactive: dose: 10.0 mg/kg/injection, schedule: Q01DX009 (ip), vehicle: saline with Tween-80 115 % of control | dose: 20.0 mg/kg/injection, schedule: Q01DX009 (ip), vehicle: saline with Tween-80 115 % of control | dose: 40.0 mg/kg/injection, schedule: Q01DX009 (ip), vehicle: saline with Tween-80 98 % of control

CN(C)/C(=N\N=C(/c1ccc(Cl)cc1)N(C)C)c1ccc(Cl)cc1
inactive: [14] 97 % of control | [15] 105 % of control | dose: 400.0 mg/kg/injection, schedule: Q04DX003 (ip), vehicle: saline with Tween-80 105 % of control

CC(C)=CC[P+](C)(c1ccccc1)c1ccccc1
inactive: dose: 1.56 mg/kg/injection, schedule: Q04DX003 (ip), vehicle: saline 101 % of control | dose: 3.13 mg/kg/injection, schedule: Q04DX003 (ip), vehicle: saline 100 % of control | dose: 6.25 mg/kg/injection, schedule: Q04DX003 (ip), vehicle: saline 89 % of control

C[C@]12CCCC[C@@H]1CC[C@@H]1[C@@H]2[C@@H](O)C[C@]2(C)[C@@H](O)CC[C@@H]12
inactive: [14] 91 % of control | [15] 100 % of control

CC1=C(c2ccco2)C(c2ccco2)OC1=O (stereo not given)
inactive: dose: 60.0 mg/kg/injection, schedule: Q01DX005 (ip), vehicle: saline with Tween-80 102 % of control | dose: 120.0 mg/kg/injection, schedule: Q01DX005 (ip), vehicle: saline with Tween-80 103 % of control | dose: 240.0 mg/kg/injection, schedule: Q01DX005 (ip), vehicle: saline with Tween-80 103 % of control

O=Nc1c(=O)[nH]c(O)c2ccccc12
inactive: dose: 25.0 mg/kg/injection, schedule: Q01DX005 (ip), vehicle: saline with Tween-80 100 % of control | [4] 107 % of control | [5] 93 % of control

COc1cc(O)c2c(c1N)C(=O)c1ccccc1C2=O
inactive: [1] 105 % of control | [2] 106 % of control | [3] 101 % of control

Nc1nc(Cl)nc(Nc2ccc(-c3cc4ccc(-c5ncc[nH]5)cc4[nH]3)cc2)n1
inactive: dose: 60.0 mg/kg/injection, schedule: Q01DX005 (ip), vehicle: Klucel (hydroxypropylcellulose) (HPC) 88 % of control | dose: 120.0 mg/kg/injection, schedule: Q01DX005 (ip), vehicle: Klucel (hydroxypropylcellulose) (HPC) 88 % of control | dose: 240.0 mg/kg/injection, schedule: Q01DX005 (ip), vehicle: Klucel (hydroxypropylcellulose) (HPC) 87 % of control

COc1cc2cc3c4ccc(OC)c(OC)c4cc[n+]3c(C)c2cc1OC (tested in a mixture with another compound)
active: [7] 150 % of control | [8] 164 % of control | [9] 174 % of control | [10] 209 % of control

CC(=O)/C(C)=C/C(=O)O
inactive: dose: 25.0 mg/kg/injection, schedule: Q01DX009 (ip), vehicle: saline 100 % of control | dose: 25.0 mg/kg/injection, schedule: Q04DX003 (ip), vehicle: saline 104 % of control | dose: 50.0 mg/kg/injection, schedule: Q01DX009 (ip), vehicle: saline 100 % of control | dose: 50.0 mg/kg/injection, schedule: Q04DX003 (ip), vehicle: saline 122 % of control | dose: 100.0 mg/kg/injection, schedule: Q01DX009 (ip), vehicle: saline 109 % of control | dose: 100.0 mg/kg/injection, schedule: Q04DX003 (ip), vehicle: saline 100 % of control

C=CCOc1ccccc1C(=O)NC(O)(C(F)(F)F)C(F)(F)F
inactive: dose: 50.0 mg/kg/injection, schedule: Q04DX002 (ip), vehicle: suspension in saline 100 % of control | dose: 100.0 mg/kg/injection, schedule: Q04DX002 (ip), vehicle: suspension in saline 104 % of control | dose: 200.0 mg/kg/injection, schedule: Q04DX002 (ip), vehicle: suspension in saline 98 % of control

CCN(CC)CCOc1ccc(NC2=C(Cl)C(=O)C(Nc3ccc(OCCN(CC)CC)cc3)=C(Cl)C2=O)cc1
inactive: dose: 3.13 mg/kg/injection, schedule: Q01DX009 (ip), vehicle: saline + alcohol 103 % of control | dose: 6.25 mg/kg/injection, schedule: Q01DX009 (ip), vehicle: saline + alcohol 110 % of control | dose: 12.5 mg/kg/injection, schedule: Q01DX009 (ip), vehicle: saline + alcohol 112 % of control | [7] 105 % of control | [8] 106 % of control

— PubChem BioAssay AID330 (DTP/NCI, 2004)
